# The supplement of paper PMC11208160
# Assay: recombinant UMI read abundance after kanamycin selection (control-corrected) (log10(CPM+1)); higher = more efficient recombination; extreme values may be limits of the assay; sequences stand for … in AGTGCAGAGAAAATCGGCCAGTTTTCTCTGCCTGCAGTCCGCATGCCGTGGGACCCCTTGGGTTCTAACCTGTTGCCTAGATTTATGCAGCGGACTGCCTTTCTCCCAAAGTGATAAACCGG…AGGTTGGTTTCACT; site = the 11-nt donor
# Outline: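 For the IS621 bridge recombinase, a pooled Escherichia coli screen tested donor and donor-binding-loop pairs. Cells received the pair library together with a target plasmid encoding a fixed target and T7-inducible recombinase, then went onto IPTG (0.07 mM) plus kanamycin or unselected plates in duplicate. After PCR across the donor–target junction and sequencing, recombinant UMI counts were normalized to CPM, averaged, and scaled by control-derived factors. Each value is given as log10(CPM+1).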
row,Sequence,recombinant UMI read abundance (log10)
1,GGCCAGCCATGGACCGGTTTTCCCGGTAATCCGTATTTGTT (site GGCCACCCTAA),0.0285
2,GGCCAGCCATGGACCGGTTTTCCCGGTAATCCGTATTTGTT (site GGCCAGCCTAA),0.00292
3,GGCCAGCCATGGACCGGTTTTCCCGGTAATCCGTATTTGTT (site GGCCATCCTAA),0
4,GGCCCGACATGGACCGGTTTTCCCGGTAATCCGTATTTGCT (site GGCCCGACTAG),1.49
5,GGCCCTGCATGGACCGGTTTTCCCGGTAATCCGTATTTGTA (site GGCCCTGCTTA),0.378
6,GGCGAACCATGGACCGGTTTTCCCGGTAATCCGTATTTGAA (site GGCGAACCTTT),0
7,GGCGATTCATGGACCGGTTTTCCCGGTAATCCGTATTTGGC (site GGCGATTCTGC),1.57
8,GGCGCAGCATGGACCGGTTTTCCCGGTAATCCGTATTTGGT (site GGCGCAGCTAC),0.482
9,GGCGCGACATGGACCGGTTTTCCCGGTAATCCGTATTTGCC (site GGCGCGACTGG),1.35
10,GGCGGCGCATGGACCGGTTTTCCCGGTAATCCGTATTTGTA (site GGCGGCGCTTA),0.781
11,GGCTACCCATGGACCGGTTTTCCCGGTAATCCGTATTTGTT (site GGCAACCCTAA),0.00887
12,GGCTACCCATGGACCGGTTTTCCCGGTAATCCGTATTTGTT (site GGCCACCCTAA),0.268
13,GGCTACCCATGGACCGGTTTTCCCGGTAATCCGTATTTGTT (site GGCGACCCTAA),0.015
14,GGCTACCCATGGACCGGTTTTCCCGGTAATCCGTATTTGTT (site GGCTACCCTAA),0.0101
15,GGCTAGTCATGGACCGGTTTTCCCGGTAATCCGTATTTGAC (site GGCTAGTCTGT),0
16,GGCTCGTCATGGACCGGTTTTCCCGGTAATCCGTATTTGCA (site GGCTCGTCTTG),2.16
17,GGCTCTACATGGACCGGTTTTCCCGGTAATCCGTATTTGGC (site GGCTCTACTGC),0
18,GGCTCTGCATGGACCGGTTTTCCCGGTAATCCGTATTTGCT (site GGCTCTGCTAG),1.66
19,GGCTTAGCATGGACCGGTTTTCCCGGTAATCCGTATTTGAG (site GGCTTAGCTCT),1.13

row,Sequence,recombinant UMI read abundance (log10)
1,GGCTTGACATGGACCGGTTTTCCCGGTAATCCGTATTTGCG (site GGCTTGACTCG),0.919
2,GGGAAGACATGGACCGGTTTTCCCGGTAATCCGTATTTGGA (site AGGAAGACTTG),0.00654
3,GGGAAGACATGGACCGGTTTTCCCGGTAATCCGTATTTGGA (site GGGAAGACTTC),1.22
4,GGGAAGACATGGACCGGTTTTCCCGGTAATCCGTATTTGGT (site GGGAAGACTAC),0.836
5,GGGAAGCCATGGACCGGTTTTCCCGGTAATCCGTATTTGTT (site CGGAATCCTAA),0
6,GGGAAGCCATGGACCGGTTTTCCCGGTAATCCGTATTTGTT (site GGGAAGCCTAA),0.0967
7,GGGAAGGCATGGACCGGTTTTCCCGGTAATCCGTATTTGCA (site AGGAAGACTTG),0
8,GGGAAGGCATGGACCGGTTTTCCCGGTAATCCGTATTTGCA (site GGGAAGGCTTG),2.86
9,GGGAATCCATGGACCGGTTTTCCCGGTAATCCGTATTTGAT (site CGGAATCCTAA),0
10,GGGAATCCATGGACCGGTTTTCCCGGTAATCCGTATTTGAT (site GGGAATCCTAT),0.145
11,GGGAATCCATGGACCGGTTTTCCCGGTAATCCGTATTTGTT (site AGGAATCCTAA),0
12,GGGAATCCATGGACCGGTTTTCCCGGTAATCCGTATTTGTT (site CGGAATCCTAA),0
13,GGGAATCCATGGACCGGTTTTCCCGGTAATCCGTATTTGTT (site GGGAATCCTAA),0.192
14,GGGAATCCATGGACCGGTTTTCCCGGTAATCCGTATTTGTT (site TGGAATCCTAA),0.0126
15,GGGAATGCATGGACCGGTTTTCCCGGTAATCCGTATTTGGT (site GGGAATGCTAC),0.885
16,GGGACACCATGGACCGGTTTTCCCGGTAATCCGTATTTGCA (site GGGACACCTTG),0
17,GGGACACCATGGACCGGTTTTCCCGGTAATCCGTATTTGCA (site GGGCCACCTTG),0
18,GGGACACCATGGACCGGTTTTCCCGGTAATCCGTATTTGCA (site GGGGCACCTTG),0
19,GGGACACCATGGACCGGTTTTCCCGGTAATCCGTATTTGCA (site GGGTCACCTTG),0

row,Sequence,recombinant UMI read abundance (log10)
1,GGGACGTCATGGACCGGTTTTCCCGGTAATCCGTATTTGAC (site GGGACGTCTGT),3.2
2,GGGACGTCATGGACCGGTTTTCCCGGTAATCCGTATTTGCA (site GGGACGTCTTG),1.99
3,GGGACGTCATGGACCGGTTTTCCCGGTAATCCGTATTTGGC (site GGGACGTCTGC),2.43
4,GGGACTACATGGACCGGTTTTCCCGGTAATCCGTATTTGAC (site AGGACTACTGT),0
5,GGGACTACATGGACCGGTTTTCCCGGTAATCCGTATTTGAC (site CGGACTACTGT),0
6,GGGACTACATGGACCGGTTTTCCCGGTAATCCGTATTTGAC (site GGGACTACTGT),1.48
7,GGGACTACATGGACCGGTTTTCCCGGTAATCCGTATTTGAC (site TGGACTACTGT),0
8,GGGACTCCATGGACCGGTTTTCCCGGTAATCCGTATTTGAG (site TACGTATCTTC),0.0126
9,GGGACTCCATGGACCGGTTTTCCCGGTAATCCGTATTTGCG (site GGGACTCCTCG),0.509
10,GGGATAGCATGGACCGGTTTTCCCGGTAATCCGTATTTGTT (site GGGATAGCTAA),1.85
11,GGGCAGGCATGGACCGGTTTTCCCGGTAATCCGTATTTGAG (site GGGCAGGCTCT),1.48
12,GGGCAGGCATGGACCGGTTTTCCCGGTAATCCGTATTTGGG (site GGGCAGGCTCC),0.0905
13,GGGCATACATGGACCGGTTTTCCCGGTAATCCGTATTTGAC (site GGGCATACTGT),1.8
14,GGGCCGTCATGGACCGGTTTTCCCGGTAATCCGTATTTGTA (site GGGCCGTCTTA),0.733
15,GGGCGATCATGGACCGGTTTTCCCGGTAATCCGTATTTGGC (site GGGCGATCTGC),1.98
16,GGGGAGGCATGGACCGGTTTTCCCGGTAATCCGTATTTGAG (site GGGGAGGCTCT),0.897
17,GGGGATTCATGGACCGGTTTTCCCGGTAATCCGTATTTGAT (site GGGGATTCTAT),1.72
18,GGGGCACCATGGACCGGTTTTCCCGGTAATCCGTATTTGCA (site AGGGCACCTTG),0
19,GGGGCACCATGGACCGGTTTTCCCGGTAATCCGTATTTGCA (site CGGGCACCTTG),0
